According to patent publication US8466290B2, “STAT3 inhibitor containing quinolinecarboxamide derivative as active ingredient” (Pharma IP General Incorporated Association, priority 2008, dated 2013):

Tested on: STAT3
Experiment: STAT3 transcription inhibition test (reporter gene method, oncostatin M stimulation)
Format: cell-based
Conditions: Homo sapiens; compound at 100 μM; STAT3 reporter HeLa stable cell line; oncostatin M 10 ng/mL, 4 hours; read-out: STAT3 transcription inhibitory activity (%)
Experimental: The inhibition of STAT3 transcription was evaluated by using STAT3 reporter HeLa stable cell line (Panomics Inc., catalog No. RC0003), a cell line for the reporter gene method, and performing the following method according to the appendix included therein.
STAT3 reporter HeLa stable cell line subcultured and maintained in a Dulbecco's modified Eagle's medium (DMEM) containing 10% fetal bovine serum, 100 units/mL penicillin, and 100 μg/mL streptomycin was inoculated at a concentration of 40000 cells/well to a 96-well plate (white) and attached to the plate by overnight incubation at 37° C. under 5% CO2. After addition of each evaluation compound adjusted to various concentrations (adjusted with a DMSO solution), the cells were precultured for 1 hour. Then, oncostatin M for activating STAT3 was added at a final concentration 10 ng/mL, and the cells were further cultured at 37° C. under 5% CO2 for 4 hours. Luciferase activity derived from the cells was determined using Steady-Glo Luciferase Assay System (Promega Corp.), and STAT3 transcriptional activity scores were calculated according to the following formula: STAT3 transcriptional activity score (%)=100×(Lchem−L0)/(LDMSO−L0) Lo: luminescence intensity obtained without stimulation with oncostatin M Lchem: luminescence intensity obtained by the addition of a test sample LDMSO: luminescence intensity obtained by the addition of only a solvent for dissolving a test sample

Compared with Cc1ccc2nc(-c3cccs3)cc(C(=O)Nc3nnc(-c4ccco4)o3)c2c1 [Ia-29, N-[5-(2-furyl)-1,3,4-oxadiazol-2-yl]-6-methyl-2-(2-thienyl)-4-quinolinecarboxamide], O=C(Nc1nnc(-c2ccco2)o1)c1cc(-c2cccs2)nc2c(Cl)cccc12 [Ia-32, 8-chloro-N-[5-(2-furyl)-1,3,4-oxadiazol-2-yl]-2-(2-thienyl)-4-quinolinecarboxamide] is higher in inhibition at 100 µM: 65% for the first, 90% for the second.

Going from CCC(=O)Nc1ccc2nc(-c3ccccc3)cc(C(=O)Nc3nnc(-c4ccco4)o3)c2c1 [Ia-93, N-[5-(2-furyl)-1,3,4-oxadiazol-2-yl]-2-phenyl-6-propionylamino-4-quinolinecarboxamide] to CCCC(=O)Nc1ccc2nc(-c3ccccc3)cc(C(=O)Nc3nnc(-c4ccco4)o3)c2c1 [Ia-94, 6-butyrylamino-N-[5-(2-furyl)-1,3,4-oxadiazol-2-yl]-2-phenyl-4-quinolinecarboxamide], the inhibition at 100 µM rises from 72% to 89%.

Compared with CN(C)CCOc1ccc2nc(-c3ccccc3)cc(C(=O)Nc3nnc(-c4ccco4)o3)c2c1 [Ia-88, N-[5-(2-furyl)-1,3,4-oxadiazol-2-yl]-6-[2-(dimethylamino)ethoxy]-2-phenyl-4-quinolinecarboxamide], COCCOc1ccc2nc(-c3ccccc3)cc(C(=O)Nc3nnc(-c4ccco4)o3)c2c1 [Ia-89, N-[5-(2-furyl)-1,3,4-oxadiazol-2-yl]-6-(2-methoxyethoxy)-2-phenyl-4-quinolinecarboxamide] is higher in inhibition at 100 µM: 76% for the first, greater than 100% for the second.

Compared with O=C(Nc1nnc(-c2ccoc2)o1)c1cc(-c2ccccc2)nc2ccccc12 [Ia-2, N-[5-(3-furyl)-1,3,4-oxadiazol-2-yl]-2-phenyl-4-quinolinecarboxamide], O=C(Nc1nnc(-c2cccnc2)o1)c1cc(-c2ccccc2)nc2ccccc12 [Ia-9, 2-phenyl-N-[5-(3-pyridyl)-1,3,4-oxadiazol-2-yl]-4-quinolinecarboxamide] is lower in inhibition at 100 µM: greater than 100% for the first, 65% for the second.

Compared with O=C(Nc1nnc(-c2ccco2)o1)c1cc(-c2ccc3c(c2)OCO3)nc2ccccc12 [Ia-58, N-[5-(2-furyl)-1,3,4-oxadiazol-2-yl]-2-(3,4-methylenedioxyphenyl)-4-quinolinecarboxamide], O=C(Nc1nnc(-c2ccco2)o1)c1cc(-c2ccc(O)cc2)nc2ccccc12 [Ia-50, N-[5-(2-furyl)-1,3,4-oxadiazol-2-yl]-2-(4-hydroxyphenyl)-4-quinolinecarboxamide] is lower in inhibition at 100 µM: greater than 100% for the first, 73% for the second.

First: O=C(Nc1nnc(-c2ccco2)s1)c1cc(-c2ccccc2)nc2ccccc12 [Ib-4, N-[5-(2-furyl)-1,3,4-thiadiazol-2-yl]-2-phenyl-4-quinolinecarboxamide]
Second: Nc1ccccc1-c1cc(C(=O)Nc2nnc(-c3ccco3)o2)c2ccccc2n1 [Ia-40, 2-(2-aminophenyl)-N-[5-(2-furyl)-1,3,4-oxadiazol-2-yl]-4-quinolinecarboxamide]
The inhibition at 100 µM of the first is lower: 58% for the first, 62% for the second.

O=C(Nc1nnc(Cc2ccccc2)o1)c1cc(-c2ccccc2)nc2ccccc12 [Ia-83, N-(5-benzyl-1,3,4-oxadiazol-2-yl)-2-phenyl-4-quinolinecarboxamide] and O=C(Nc1nnc(-c2ccc(Cl)cc2)o1)c1cc(-c2ccccc2)nc2ccccc12 [Ia-5, N-[5-(4-chlorophenyl)-1,3,4-oxadiazol-2-yl]-2-phenyl-4-quinolinecarboxamide] cannot be ordered by inhibition at 100 µM: greater than 100% for the first, greater than 100% for the second.

Going from N#Cc1cccc(-c2cc(C(=O)Nc3nnc(-c4ccco4)o3)c3ccccc3n2)c1 [Ia-43, 2-(3-cyanophenyl)-N-[5-(2-furyl)-1,3,4-oxadiazol-2-yl]-4-quinolinecarboxamide] to O=C(Nc1nnc(-c2ccco2)o1)c1cc(-c2cccc([N+](=O)[O-])c2)nc2ccccc12 [Ia-16, N-[5-(2-furyl)-1,3,4-oxadiazol-2-yl]-2-(3-nitrophenyl)-4-quinolinecarboxamide], the inhibition at 100 µM falls from 71% to 62%.

Going from COc1ccc(-c2cc(C(=O)Nc3nnc(-c4ccco4)o3)c3ccccc3n2)cc1OC [Ia-57, N-[5-(2-furyl)-1,3,4-oxadiazol-2-yl]-2-(3,4-dimethoxyphenyl)-4-quinolinecarboxamide] to Cc1ccc(-c2cc(C(=O)Nc3nnc(-c4ccco4)o3)c3ccccc3n2)c(C)c1 [Ia-56, N-[5-(2-furyl)-1,3,4-oxadiazol-2-yl]-2-(2,4-dimethylphenyl)-4-quinolinecarboxamide], the inhibition at 100 µM falls from greater than 100% to 99%.

O=C(Nc1nnc(-c2ccco2)o1)c1cc(-c2ccccc2)nc2ccc(-c3ccc(O)cc3)cc12 [Ia-98, N-[5-(2-furyl)-1,3,4-oxadiazol-2-yl]-6-(4-hydroxyphenyl)-2-phenyl-4-quinolinecarboxamide] and O=C(Nc1nnc(-c2ccco2)o1)c1cc(-c2ccccc2)nc2ccc(OCc3ccccc3)cc12 [Ia-90, 6-benzyloxy-N-[5-(2-furyl)-1,3,4-oxadiazol-2-yl]-2-phenyl-4-quinolinecarboxamide] cannot be ordered by inhibition at 100 µM: greater than 100% for the first, greater than 100% for the second.

Going from O=C(Nc1nnc(-c2ccco2)o1)c1cc(-c2ccccc2Cl)nc2ccccc12 [Ia-37, 2-(2-chlorophenyl)-N-[5-(2-furyl)-1,3,4-oxadiazol-2-yl]-4-quinolinecarboxamide] to O=C(Nc1nnc(-c2ccco2)o1)c1cc(-c2ccco2)nc2ccccc12 [Ia-18, 2-(2-furyl)-N-[5-(2-furyl)-1,3,4-oxadiazol-2-yl]-4-quinolinecarboxamide], the inhibition at 100 µM falls from 100% to 68%.

First: COc1ccc(OC)c(-c2cc(C(=O)Nc3nnc(-c4ccncc4)s3)c3ccccc3n2)c1 [Ib-c, 2-(2,5-dimethoxyphenyl)-N-[5-(4-pyridyl)-1,3,4-thiadiazol-2-yl]-4-quinolinecarboxamide]
Second: Cc1ccc(-c2cc(C(=O)Nc3nnc(-c4ccncc4)s3)c3ccccc3n2)o1 [Ib-e, 2-(5-methyl-2-furyl)-N-[5-(4-pyridyl)-1,3,4-thiadiazol-2-yl]-4-quinolinecarboxamide]
The inhibition at 100 µM of the first is higher: greater than 100% for the first, 85% for the second.

Going from O=C(Nc1nnc(-c2ccncc2)s1)c1cc(-c2cccnc2)nc2ccc(Cl)cc12 [Ib-d, 6-chloro-2-(3-pyridyl)-N-[5-(4-pyridyl)-1,3,4-thiadiazol-2-yl]-4-quinolinecarboxamide] to Cc1cc(-c2cc(C(=O)Nc3nnc(-c4ccncc4)s3)c3cc(Cl)ccc3n2)c(C)s1 [Ib-f, 6-chloro-2-(2,5-dimethyl-3-thienyl)-N-[5-(4-pyridyl)-1,3,4-thiadiazol-2-yl]-4-quinolinecarboxamide], the inhibition at 100 µM rises from 73% to 100%.

O=C(Nc1nnc(-c2ccco2)o1)c1cc(-c2ccco2)nc2c(Cl)cccc12 [Ia-79, 8-chloro-2-(2-furyl)-N-[5-(2-furyl)-1,3,4-oxadiazol-2-yl]-4-quinolinecarboxamide] and Cc1c(Cl)ccc2c(C(=O)Nc3nnc(-c4ccco4)o3)cc(-c3ccco3)nc12 [Ia-28, 7-chloro-2-(2-furyl)-N-[5-(2-furyl)-1,3,4-oxadiazol-2-yl]-8-methyl-4-quinolinecarboxamide] cannot be ordered by inhibition at 100 µM: greater than 100% for the first, greater than 100% for the second.

First: O=C(Nc1nnc(-c2ccccc2)o1)c1cc(-c2cccs2)nc2ccccc12 [Ia-j, N-(5-phenyl-1,3,4-oxadiazol-2-yl)-2-(2-thienyl)-4-quinolinecarboxamide]
Second: O=C(Nc1nnc(-c2ccc([N+](=O)[O-])o2)o1)c1cc(-c2ccccc2)nc2ccccc12 [Ia-84, N-[5-(5-nitro-2-furyl)-1,3,4-oxadiazol-2-yl]-2-phenyl-4-quinolinecarboxamide]
The inhibition at 100 µM of the first is higher: 91% for the first, 56% for the second.

Compared with Cc1c(Cl)ccc2c(C(=O)Nc3nnc(-c4ccco4)o3)cc(-c3ccccc3)nc12 [Ia-26, 7-chloro-N-[5-(2-furyl)-1,3,4-oxadiazol-2-yl]-8-methyl-2-phenyl-4-quinolinecarboxamide], O=C(Nc1nnc(-c2ccc([N+](=O)[O-])cc2)o1)c1cc(-c2ccccc2)nc2ccccc12 [Ia-7, N-[5-(4-nitrophenyl)-1,3,4-oxadiazol-2-yl]-2-phenyl-4-quinolinecarboxamide] is lower in inhibition at 100 µM: 73% for the first, 65% for the second.

Compound O=C(Nc1nnc(-c2ccco2)o1)c1cc(N2CCCCC2)nc2ccccc12 [Ia-14, N-[5-(2-furyl)-1,3,4-oxadiazol-2-yl]-2-piperidino-4-quinolinecarboxamide] has an inhibition at 100 µM of 63%.

Same assay, conditions: compound at 100 μM; STAT3 reporter HeLa stable cell line; oncostatin M 10 ng/mL, 4 hours

In the case of “N-[(5-phenyl-1,3,4-oxadiazol-2-yl)methyl]-4-quinolinecarboxamide [Ia-10]”, the “STAT3 transcription inhibitory activity (%)” value is reported as greater than 100%.
With COc1ccc2cc(-c3cc(C(=O)Nc4nnc(-c5ccco5)o4)c4ccccc4n3)ccc2c1 [Ia-61, N-[5-(2-furyl)-1,3,4-oxadiazol-2-yl]-2-(6-methoxy-2-naphthyl)-quinolinecarboxamide] the “STAT3 transcription inhibitory activity (%)” value was greater than 100%.

Tested on: MDA-MB-435S
Experiment: MDA-MB-435S cell growth inhibitory activity
Format: cell-based
Conditions: Homo sapiens, compound at 20 μM, 72 hours, read-out: Cell growth inhibitory activity (%)
Experimental: […] Each well was washed three times with a medium. Then, after addition of 100 μL/well of a medium and 20 μL/well of CellTiter 96 AQueous One Solution Reagent (Promega Corp.), the cells were incubated at 37° C. for 2 hours in the presence of 5% CO2.

In order of falling inhibition at 20 µM:
1. Cc1ccc2nc(-c3cccs3)cc(C(=O)Nc3nnc(-c4ccco4)o3)c2c1 [Ia-29, N-[5-(2-furyl)-1,3,4-oxadiazol-2-yl]-6-methyl-2-(2-thienyl)-4-quinolinecarboxamide]  98%
2. O=C(Nc1nnc(Cc2ccccc2)o1)c1cc(-c2ccccc2)nc2ccccc12 [Ia-83, N-(5-benzyl-1,3,4-oxadiazol-2-yl)-2-phenyl-4-quinolinecarboxamide]  90%
3. O=C(Nc1nnc(-c2ccco2)o1)c1cc(-c2ccccc2)nc2ccc(-c3ccc(O)cc3)cc12 [Ia-98, N-[5-(2-furyl)-1,3,4-oxadiazol-2-yl]-6-(4-hydroxyphenyl)-2-phenyl-4-quinolinecarboxamide]  86%
4. N#Cc1cccc(-c2cc(C(=O)Nc3nnc(-c4ccco4)o3)c3ccccc3n2)c1 [Ia-43, 2-(3-cyanophenyl)-N-[5-(2-furyl)-1,3,4-oxadiazol-2-yl]-4-quinolinecarboxamide]  72%
5. CCC(=O)Nc1ccc2nc(-c3ccccc3)cc(C(=O)Nc3nnc(-c4ccco4)o3)c2c1 [Ia-93, N-[5-(2-furyl)-1,3,4-oxadiazol-2-yl]-2-phenyl-6-propionylamino-4-quinolinecarboxamide]  67%
6. COc1ccc(-c2cc(C(=O)Nc3nnc(-c4ccco4)o3)c3ccccc3n2)cc1OC [Ia-57, N-[5-(2-furyl)-1,3,4-oxadiazol-2-yl]-2-(3,4-dimethoxyphenyl)-4-quinolinecarboxamide]  64%
7. O=C(Nc1nnc(-c2ccco2)o1)c1cc(-c2ccc3c(c2)OCO3)nc2ccccc12 [Ia-58, N-[5-(2-furyl)-1,3,4-oxadiazol-2-yl]-2-(3,4-methylenedioxyphenyl)-4-quinolinecarboxamide]  58%
